Assay results reported in publication PMC5059489, “Mechanistic evaluation and transcriptional signature of a glutathione S-transferase omega 1 inhibitor” (Nature Communications, 2016).

Key:
Keap1 = target: T1, Keap1 (Homo sapiens, UniProt Q14145); assay: Cellular thermal-shift assay, Keap1; type: binding; details: HCT116p53+/+ cell lysate; 100 µM
T1 construct: endogenous in cells; host or cells: HCT116 p53+/+ cell lysate
Protocol: (§1) Cellular thermal-shift assay was performed as described previously. Briefly, HCT116^p53+/+ cells were collected, washed with PBS and diluted with cell lysis buffer (25 mM Tris-HCl (pH 7.5) and 10 mM MgCl2) supplemented with complete protease inhibitor cocktail. The cell suspension was frozen and thawed three times in liquid nitrogen. The soluble fraction was separated from debris by spinning down at 20,000g for 20 min. Cell lysate was then diluted with lysate buffer and divided into two aliquots—one treated with C1-27 (100 μM) and the other treated with 1% DMSO. After 30 min incubation at room temperature, the treated lysates were further divided into smaller aliquots (50 μl), which were then heated at different temperatures for 3 min on a Veriti thermal cycler (Applied Biosystems) followed by cooling for 3 min to room temperature. The heated lysates were centrifuged at 20,000g for 20 min at 4°C to separate the soluble fractions from precipitates. Supernatants were quantified and analysed by western blotting.
(§2) Supplementary Fig. 11. Target engagement by C1-27. (a-c) CETSA melt curves for GSTO1 (a ), PDI (b ) and Keap1 (c) in HCT116p53+/+ cell lysate treated with C1-27 (100 µM). 1% DMSO was used as control.
(§3) Data presented are mean ± SD of 3 independent experiments. A negative shift in the melting curves was […]

PDI = PDI (Homo sapiens, UniProt P07237); assay: Cellular thermal-shift assay, PDI; type: binding; design: endogenous in cells; host or cells: HCT116 p53+/+ cell lysate; details: HCT116p53+/+ cell lysate
Protocol: as §1, with “Cell lysate was then diluted with lysate buffer and divided into two aliquots—one treated with C1-27 (100 μM) and the other treated with 1% DMSO.” left out
as §2, §3
(Below) Representative western blots showing soluble fractions of the target proteins following drug treatment and heating. […]

A549 = assay: MTT cytotoxicity GI50, A549; type: cell-based; details: Homo sapiens
Protocol: Cell proliferation was assessed by a MTT assay. Cancer cells were seeded in 96-well microtitre plates and, after overnight attachment, treated with GSTO1 inhibitors. After 72 h, MTT solution (3 mg ml^−1; 20 μl) was added to each well and cells were incubated for 3 h at 37 °C. After incubation, media from each well was removed and the dark blue formazan crystals formed by live cells were dissolved in DMSO (150 μl per well). The absorbance intensity was measured at 570 nm on a microplate reader (Molecular Devices, Sunnyvale, CA, USA). Cell viability after 24 h treatment was assessed using ApoTox-Glo triplex assay (Promega) according to the manufacturer's protocol. At least three independent dose–response experiments with each concentration tested in triplicate were performed for each cell line.

Chain of PDI (P07237 18-508): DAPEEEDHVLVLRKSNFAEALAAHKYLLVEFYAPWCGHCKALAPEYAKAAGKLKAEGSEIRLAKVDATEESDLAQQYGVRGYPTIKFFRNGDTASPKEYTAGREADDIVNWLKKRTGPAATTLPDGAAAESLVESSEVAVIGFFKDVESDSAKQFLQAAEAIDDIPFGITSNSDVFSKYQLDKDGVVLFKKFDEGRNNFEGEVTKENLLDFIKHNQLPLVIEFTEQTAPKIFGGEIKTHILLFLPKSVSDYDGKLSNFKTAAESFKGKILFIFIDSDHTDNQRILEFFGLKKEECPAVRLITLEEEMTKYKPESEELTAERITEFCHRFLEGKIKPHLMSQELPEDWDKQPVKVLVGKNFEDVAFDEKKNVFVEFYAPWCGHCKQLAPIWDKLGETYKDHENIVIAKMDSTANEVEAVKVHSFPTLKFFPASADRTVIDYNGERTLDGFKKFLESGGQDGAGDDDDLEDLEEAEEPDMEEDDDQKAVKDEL
T1 sequence (Q14145 whole entry): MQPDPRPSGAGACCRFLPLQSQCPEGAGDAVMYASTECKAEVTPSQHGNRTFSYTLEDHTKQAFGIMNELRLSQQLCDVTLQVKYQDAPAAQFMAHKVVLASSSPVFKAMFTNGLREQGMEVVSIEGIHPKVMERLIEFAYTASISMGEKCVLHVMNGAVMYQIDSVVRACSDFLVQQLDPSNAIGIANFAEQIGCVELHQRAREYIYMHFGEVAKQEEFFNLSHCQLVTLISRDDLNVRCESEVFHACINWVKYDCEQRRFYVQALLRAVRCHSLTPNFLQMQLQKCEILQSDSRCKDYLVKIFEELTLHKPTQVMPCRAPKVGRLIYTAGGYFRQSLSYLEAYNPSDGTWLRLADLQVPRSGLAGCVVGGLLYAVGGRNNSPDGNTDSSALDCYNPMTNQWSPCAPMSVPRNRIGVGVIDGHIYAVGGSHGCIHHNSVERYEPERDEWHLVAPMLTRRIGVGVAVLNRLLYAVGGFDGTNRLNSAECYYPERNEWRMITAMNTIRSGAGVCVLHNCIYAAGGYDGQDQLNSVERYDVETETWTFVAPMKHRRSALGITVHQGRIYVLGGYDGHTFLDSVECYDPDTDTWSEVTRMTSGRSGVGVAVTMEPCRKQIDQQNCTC

In the case of `CN(C)S(=O)(=O)c1cc(NC(=O)CCl)ccc1Cl` [C1-27], the “CETSA thermal shift of Keap1” value (Keap1) is reported as “no shift”, the “CETSA thermal shift of PDI” value (PDI; 10 µM and 1 µM) is reported as “no shift” and the “CETSA thermal shift of PDI” value (PDI; 100 µM) is reported as “thermal shift”. For the same molecule, the GI50 (A549) was 11.7 µM.
